pIC50: −log10 of the molar value.
Key:
PI3Kα kinase = target: T1, PI3Kα kinase (Homo sapiens, UniProt P42336); test: PI3Kα assay (32P incorporation into phosphatidylinositol, TLC densitometry); assay type: biochemical; conditions: At 100 nM
T1 construct: purchased Millipore, USA
Experimental: The assay was designed as in the reference, Cell, 2006, 125, 733-47 (Supplemental Data), the disclosure of which is incorporated by reference for the teaching of the assay.
The kinase reaction was carried out in a 25 μL volume in a 1.5 mL microcentrifuge tube. The reaction mixture consisted of kinase buffer (10 mM Hepes, pH 7.5, 50 mM MgCl2), 20 ng PI3Kα kinase (Millipore, USA), 12.5 μg phosphatidylinositol (PI), 10 μM ATP and 1 μCi ^32γ P dATP. Compounds of Example 1-40 were added at concentrations (stock solution was prepared in DMSO and subsequent dilutions were made in kinase buffer) as mentioned in the table. The reaction mixture was incubated at 30° C. for 20 minutes and was terminated by adding 1:1 mixture of MeOH and chloroform. The tube contents were mixed on a vortex mixer and centrifuged at 10000 rpm for 2 minutes. 10 μL of the organic (lower) phase was spotted on to a TLC plate (silica, mobile phase: n-propanol and 2 M glacial acetic acid in 65:35 ratio). The plates were dried and exposed to an X-ray film. The bands appearing as a result of ^32γ P incorporation in PI were quantitated using the QuantityOne (BioRad, USA) densitometry program. PI-103 (Calbiochem, USA) was used as a standard.

A549 = test: Cytotoxicity, propidium iodide assay, A549; assay type: cell-based; conditions: Homo sapiens; Lung, A549, 48 hours treatment; read-out: IC50, C1a (A549)
Experimental: (§1) The assay was designed as in the reference, Anticancer Drugs, 2002, 13, 1-8, the disclosure of which is incorporated by reference for the teaching of the assay.
(§2) Cells from cell lines as mentioned in the table given below were seeded at a density of 3000 cells/well in a white opaque 96-well plate. Following incubation at 37° C./5% CO2 for a period of 18-24 hours, the cells were treated with various concentrations (stock solution was prepared in DMSO and subsequent dilutions were made in media as per ATCC guidelines) of the compounds of Example 1-40 was for a period of 48 hours. At the end of treatment, the spent culture medium was discarded, the cells were washed with 1×PBS and 200 μl of 7 μg/ml propidium iodide was added to each well. The plates were frozen at −70° C. for at least 24 hours. For analysis, the plates were brought to RT, allowed to thaw and were read in PoleStar fluorimeter with the fluorescence setting. The percentage of viable cells in the non-treated set of wells was considered to be 100 and the percentage viability following treatment was calculated accordingly. IC50 values were calculated from graphs plotted using these percentages. Table 4 depicts the IC50 values of compounds of Example 1-40 in individual cell lines.
(§3) The abbreviations for the Cell Lines as used in Table 4 are: […]

H460 = test: Cytotoxicity, propidium iodide assay, H460; assay type: cell-based; conditions: Homo sapiens, NCI-H460; Lung, H460, 48 hours treatment; read-out: IC50, C1b (H460)
Experimental: as §1, §2, §3

PC3 = test: Cytotoxicity, propidium iodide assay, PC3; assay type: cell-based; conditions: Homo sapiens, PC-3; Prostate, PC3, 48 hours treatment; read-out: IC50, C2a (PC3)
Experimental: as §1, §2, §3

OVCAR 3 = test: Cytotoxicity, propidium iodide assay, OVCAR 3; assay type: cell-based; conditions: Homo sapiens; Ovarian, OVCAR 3, 48 hours treatment; read-out: IC50, C3b (OVCAR 3)
Experimental: as §1, §2, §3

HCT116 = test: Cytotoxicity, propidium iodide assay, HCT116; assay type: cell-based; conditions: Homo sapiens, HCT-116; Colon, HCT116, 48 hours treatment; read-out: IC50, C4a (HCT116)
Experimental: as §1, §2, §3

U 373 = test: Cytotoxicity, propidium iodide assay, U 373; assay type: cell-based; conditions: Homo sapiens, U373 MG; Glioblastoma, U 373, 48 hours treatment; read-out: IC50, C7a (U 373)
Experimental: as §1, §2, §3

U 87 MG = test: Cytotoxicity, propidium iodide assay, U 87 MG; assay type: cell-based; conditions: Homo sapiens, Glioblastoma, 48 hours treatment, read-out: IC50, C7b (U 87 MG)
Experimental: as §1, §2, §3

IL-6 = test: Human monocyte assay, LPS-stimulated IL-6 (ELISA); assay type: cell-based; conditions: human monocytes, 1 μg/ml LPS, 5 hours
Experimental: (§4) The assay was designed as in the reference, Physiol. Res., 2003, 52, 593-598, the disclosure of which is incorporated by reference for the teaching of the assay.
(§5) Peripheral blood mononuclear cells (hPBMC) were harvested from human blood and suspended in RPMI 1640 culture medium containing 10% FCS, 100 U/mL penicillin and […] streptomycin (assay medium). Monocytes in the hPBMCs were counted using a Coulter Counter following which the cells were resuspended at 2×10^5 monocytes/mL. A cell suspension containing 2×10^4 monocytes was aliquoted per well of a 96-well plate. Subsequently, the hPBMCs were incubated for 4-5 hours at 37° C. under 5% CO2 (During the incubation, the monocytes adhered to the bottom of 96-well plastic culture plate). Following the incubation, the non-adherent lymphocytes were washed with assay medium and the adherent monocytes re-fed with assay medium. After a 48-hour incubation period (37° C., 5% CO2), monocytes were pretreated with various concentrations of compounds of Example 1-40 (prepared in DMSO) or vehicle (0.5% DMSO) for 30 minutes and stimulated with 1 μg/ml LPS (Escherchia coli 0111:B4, Sigma Chemical Co., St. Louis, Mo.). The incubation was continued for 5 hours at 37° C., 5% CO2. Supernatants were harvested, assayed for IL-6 and TNF-α by ELISA as described by the manufacturer (BD Biosciences, USA). Dexamethasone (10 μM) was used as standard for this assay. The 50% inhibitory concentration (IC50) values were calculated by a nonlinear regression method. In all experiments, a parallel plate was run to ascertain the toxicity of compounds of Example 1-40. The toxicity was determined using the MTS assay as described in Am. J. Physiol. Cell Physiol., 2003, 285, C813-C822.

TNF-α = test: Human monocyte assay, LPS-stimulated TNF-α (ELISA); assay type: cell-based; conditions: human monocytes, 1 μg/ml LPS, 5 hours, read-out: TNFα (IC50)
Experimental: as §4, §5

A2780 = test: Cytotoxicity, propidium iodide assay, A2780; assay type: cell-based; conditions: Homo sapiens; Ovarian, A2780, 48 hours treatment; read-out: IC50, C3a (A2780)
Experimental: as §1, §2, §3

AsPC 1 = test: Cytotoxicity, propidium iodide assay, AsPC 1; assay type: cell-based; conditions: Homo sapiens, ASPC1; Pancreatic, AsPC 1, 48 hours treatment; read-out: IC50, C5b (AsPC 1)
Experimental: as §1, §2, §3

BxPC3 = test: Cytotoxicity, propidium iodide assay, BxPC3; assay type: cell-based; conditions: Homo sapiens, BXPC-3; Pancreatic, BxPC3, 48 hours treatment; read-out: IC50, C5c (BxPC3)
Experimental: as §1, §2, §3

PI3K α = test: PI3K activity assay, cell-based ELISA of AKT (Ser 473) phosphorylation; conditions: Homo sapiens, Ovarian cell line A2780, 20% FCS stimulation
Experimental: The assay was designed as in the reference, Biochemical Journal, 2000, 350, 717-722, the disclosure of which is incorporated by reference for the teaching of the assay.
Seed cells (Ovarian cell line A2780, ATCC) were plated in a 96 well microtitre plate at a density of 50,000 cells/cm^2 in appropriate complete cell culture medium. The cells were allowed to adhere for 18-24 hours. The cells were allowed to starve for 24 hours. The cells were pretreated (in triplicates) with the compounds of Example 1-40 (stock solution was prepared in DMSO and subsequent dilutions were made in kinase buffer) at a concentration of 10 μM for one hour. Then the cells were stimulated with 20% FCS for 30 minutes. A typical assay would consist of a set of unstimulated cells, a set of stimulated cells and a set of cells treated with compounds of Example 1-40 and a set of cells treated with the stimulator. The medium was discarded. The cells were fixed with 100 μL of 3.7% formaldehyde for 15 minutes. The formaldehyde was discarded by inverting the plate and tapping it on a thick tissue paper layer to remove traces. The cells were washed and permeabilized with 200 μL PBS+Triton-X 100 solution (hereafter referred to as PBS-Triton, containing 0.1% triton-X 100 in 1×PBS) three times, incubating the cells each time for 5 minutes. 100 μL blocking solution (10% FCS in PBS-Triton) was added and incubated for 1 hour at 25° C. The blocking solution was discarded and cells were incubated with the primary antibody in PBS-Triton at a dilution of 1:500 for 1 hour at RT (25° C.). [The primary antibody is Phospho-AKT (Ser 473); Cell Signaling; USA, Cat. No. 9271]. The primary antibody solution was discarded and the cells were washed 3 times with PBS-Triton solution and incubated with the HRP-conjugated secondary antibody in PBS-Triton at a dilution of 1:500 for 1 hour at RT (25° C.). The cells were washed 3 times with PBS-Triton followed by two washes with PBS (to remove traces of triton-X 100). The OPD (o-phenylene diamine dihydrochloride) substrate was prepared for detection of the signal by dissolving one tablet set (two tablets) of SigmaFast OPD (Sigma, USA, Cat No. P9187) in 20 mL distilled water. It should be kept protected from light. 100 μL OPD solutions was added to the wells and the plate was incubated in the dark for 3-5 minutes (depending upon the development of the color). The reaction was stopped by adding 50 μL 2 NH2SO4. The absorbance was measured at 490 nm. The values were expressed in the treated samples, in terms of percentage or fold decrease in AKT phosphorylation with respect to the induced sample. PI-103 (Calbiochem, USA) was used as a standard.

T1 sequence (P42336 whole entry): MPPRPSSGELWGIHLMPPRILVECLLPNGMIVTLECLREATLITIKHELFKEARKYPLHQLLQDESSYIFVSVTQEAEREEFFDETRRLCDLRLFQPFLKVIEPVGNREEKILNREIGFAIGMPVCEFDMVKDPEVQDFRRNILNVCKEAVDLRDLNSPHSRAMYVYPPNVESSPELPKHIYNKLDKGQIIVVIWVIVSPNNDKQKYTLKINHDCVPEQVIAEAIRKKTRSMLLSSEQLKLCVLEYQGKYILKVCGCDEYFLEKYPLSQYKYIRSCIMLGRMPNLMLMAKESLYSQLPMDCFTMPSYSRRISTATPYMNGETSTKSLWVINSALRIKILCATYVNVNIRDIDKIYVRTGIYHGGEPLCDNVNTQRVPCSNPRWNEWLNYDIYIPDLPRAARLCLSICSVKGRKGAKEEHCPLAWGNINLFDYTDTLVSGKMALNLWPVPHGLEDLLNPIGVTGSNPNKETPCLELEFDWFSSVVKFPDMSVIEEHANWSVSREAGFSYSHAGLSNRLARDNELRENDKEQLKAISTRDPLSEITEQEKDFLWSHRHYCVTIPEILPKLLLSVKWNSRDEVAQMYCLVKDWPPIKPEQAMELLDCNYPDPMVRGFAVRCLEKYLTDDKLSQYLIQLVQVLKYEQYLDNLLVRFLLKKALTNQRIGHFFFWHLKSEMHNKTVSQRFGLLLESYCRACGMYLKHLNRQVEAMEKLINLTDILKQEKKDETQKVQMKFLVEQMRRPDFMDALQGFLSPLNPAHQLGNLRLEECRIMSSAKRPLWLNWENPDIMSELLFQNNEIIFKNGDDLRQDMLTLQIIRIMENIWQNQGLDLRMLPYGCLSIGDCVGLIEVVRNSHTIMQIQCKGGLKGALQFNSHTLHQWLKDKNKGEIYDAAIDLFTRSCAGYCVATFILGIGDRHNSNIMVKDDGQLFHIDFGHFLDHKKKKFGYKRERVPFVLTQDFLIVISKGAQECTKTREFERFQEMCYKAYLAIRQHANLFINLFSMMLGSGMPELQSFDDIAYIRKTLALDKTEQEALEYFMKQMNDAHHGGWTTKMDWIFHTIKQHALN
T1 sequence (P27986 whole entry partner): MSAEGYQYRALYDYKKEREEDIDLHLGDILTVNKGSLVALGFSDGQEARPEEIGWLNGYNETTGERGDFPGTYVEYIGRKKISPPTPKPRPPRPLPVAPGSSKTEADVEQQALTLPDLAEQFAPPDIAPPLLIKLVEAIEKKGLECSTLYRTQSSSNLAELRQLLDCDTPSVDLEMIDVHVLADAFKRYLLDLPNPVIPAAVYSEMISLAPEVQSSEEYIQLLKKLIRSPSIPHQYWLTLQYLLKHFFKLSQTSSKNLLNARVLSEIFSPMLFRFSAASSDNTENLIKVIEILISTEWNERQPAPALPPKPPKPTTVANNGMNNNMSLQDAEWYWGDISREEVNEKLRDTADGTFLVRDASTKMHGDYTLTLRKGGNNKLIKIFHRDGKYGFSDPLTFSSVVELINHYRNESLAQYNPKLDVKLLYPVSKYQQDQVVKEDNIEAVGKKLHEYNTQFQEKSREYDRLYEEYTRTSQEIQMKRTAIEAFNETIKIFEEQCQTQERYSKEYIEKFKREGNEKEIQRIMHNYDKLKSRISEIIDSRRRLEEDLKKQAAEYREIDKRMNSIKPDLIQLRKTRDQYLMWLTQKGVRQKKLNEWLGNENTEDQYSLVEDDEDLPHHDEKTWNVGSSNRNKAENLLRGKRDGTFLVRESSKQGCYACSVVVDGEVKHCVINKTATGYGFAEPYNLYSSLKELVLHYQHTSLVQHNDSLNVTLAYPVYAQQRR

inhibition at 0.1 µM (PI3Kα kinase) [%] | pIC50 (IL-6) | pIC50 (TNF-α) | SMILES | pIC50 (A549) | pIC50 (H460) | pIC50 (PC3) | pIC50 (OVCAR 3) | pIC50 (HCT116) | pIC50 (U 373) | pIC50 (U 87 MG) | pIC50 (A2780) | pIC50 (AsPC 1) | pIC50 (BxPC3) | inhibition at 10 µM (PI3K α) [%]
> 50 | < 4.52 | ≥ 6.00 | CC(C)(C#N)c1ccc(-n2c(=O)n(C(=O)Nc3ccccc3Br)c3cnc4ccc(Br)cc4c32)cc1 [Example 33, 8-Bromo-N-(2-bromophenyl)-1-(4-(2-cyanopropan-2-yl)phenyl)-2-oxo-1H-imidazo[4,5-c]quinoline-3(2H)-carboxamide] | 5.52 to 6.00 | 5.52 to 6.00 | < 5.52 | < 5.52 | < 5.52 | < 5.52 | < 5.52 | – | – | – | –
10 to 50 | – | – | CC(=O)n1c(=O)n(-c2ccc(C(C)(C)C#N)cc2)c2c3cc(Cl)ccc3ncc21 [Example 36, 2-(4-(3-Acetyl-8-chloro-2-oxo-2,3-dihydro-1H-imidazo[4,5-c]quinolin-1-yl)phenyl)-2-methylpropanenitrile] | 5.52 to 6.00 | ≥ 6.00 | < 5.52 | < 5.52 | < 5.52 | < 5.52 | < 5.52 | – | – | – | –
10 to 50 | 5.00 to 6.00 | – | CC(C)(C#N)c1ccc(-n2c(=O)n(S(C)(=O)=O)c3cnc4ccc(Br)cc4c32)cc1 [Example 18, 2-(4-(8-Bromo-3-(methylsulfonyl)-2-oxo-2,3-dihydro-1H-imidazo[4,5-c]quinolin-1-yl)phenyl)-2-methylpropanenitrile] | 5.52 to 6.00 | ≥ 6.00 | 5.52 to 6.00 | – | 5.52 to 6.00 | – | – | ≥ 6.00 | 5.52 to 6.00 | 5.52 to 6.00 | –
10 to 50 | – | – | CC(C)(C#N)c1ccc(-n2c(=O)n(S(=O)(=O)c3cccc(C(F)(F)F)c3)c3cnc4ccc(Br)cc4c32)cc1 [Example 13, 2-(4-(8-Bromo-2-oxo-3-(3-(trifluoromethyl)phenylsulfonyl)-2,3-dihydro-1H-imidazo[4,5-c]quinolin-1-yl)phenyl)-2-methylpropanenitrile] | < 5.52 | < 5.52 | < 5.52 | < 5.52 | < 5.52 | < 5.52 | < 5.52 | – | – | – | –
10 to 50 | 5.00 to 6.00 | ≥ 6.00 | CC(C)(C#N)c1ccc(-n2c(=O)n(S(=O)(=O)c3ccccc3C#N)c3cnc4ccc(Br)cc4c32)cc1 [Example 2, 2-(8-Bromo-1-(4-(2-cyanopropan-2-yl)phenyl)-2-oxo-1H-imidazo[4,5-c]quinolin-3 (2H)-ylsulfonyl)benzonitrile] | – | ≥ 6.00 | ≥ 6.00 | 5.52 to 6.00 | – | < 5.52 | – | ≥ 6.00 | – | – | 10 to 50
– | – | – | Cc1cccc(S(=O)(=O)n2c(=O)n(-c3ccc(C(C)(C)C#N)cc3)c3c4cc(Cl)ccc4ncc32)c1 [Example 19, 2-(4-(8-Chloro-2-oxo-3-(m-tolylsulfonyl)-2,3-dihydro-1H-imidazo[4,5-c]quinolin-1-yl)phenyl)-2-methylpropanenitrile] | ≥ 6.00 | 5.52 to 6.00 | 5.52 to 6.00 | < 5.52 | < 5.52 | – | – | – | – | < 5.52 | –
> 50 | < 4.52 | – | Cc1cc(C)cc(S(=O)(=O)n2c(=O)n(-c3ccc(C(C)(C)C#N)cc3)c3c4cc(Br)ccc4ncc32)c1 [Example 6, 2-(4-(8-Bromo-3-(3,5-dimethylphenylsulfonyl)-2-oxo-2,3-dihydro-1H-imidazo[4,5-c]quinolin-1-yl)phenyl)-2-methylpropanenitrile] | < 5.52 | < 5.52 | 5.52 to 6.00 | < 5.52 | < 5.52 | < 5.52 | < 5.52 | – | – | – | 10 to 50
